Reference: patent US7727558B2, “Polymeric delivery agents and delivery agent compounds” (Emisphere Technologies, Inc., priority 1999, dated 2010)
Values joined by “and” are separate entries in the source; they are usually repeats but may differ in a detail not shown here. Identical values can stand only once.

Experiment: Oral administration of rhGH with delivery agent or conjugate in rats, serum rhGH by immunoassay
Type: in vivo, Sprague-Dawley rats
Conditions: individual rat, 200 mg/kg conjugate = 20 mg/kg delivery agent
Experimental: Oral gavage (PO) and/or intracolonic (IC) dosing solutions of delivery agent compound and rhGH in water, phosphate buffer (PB) or 5% aqueous ethanol were prepared. Typically, a solution of the conjugate was prepared by mixing in water and stirred. The final dosing solutions were prepared by mixing the conjugate solution with an rhGH stock solution (typically 15 mg rhGH/ml) and diluting to the desired volume (usually 3.0 ml). The compounds and rhGH dose amounts are listed below in Table 1.
Male Sprague-Dawley rats weighing between 200-250 g were fasted for 24 hours and administered ketamine (44 mg/kg) and chlorpromazine (1.5 mg/kg) 15 minutes prior to dosing. A dosing group of five rats was administered one of the dosing solutions. For oral gavage (PO), an […] Rusch 8 French catheter was adapted to a 1 ml syringe with a pipette tip. The syringe was filled with dosing solution by drawing the solution through the catheter, which was then wiped dry. The catheter was placed down the esophagus leaving 1 cm of tubing past the rat's incisors. Solution was administered by pressing the syringe plunger. For intracolonic (IC) dosing, a 7.5 cm Rusch catheter tube (French 8 or 6) was adapted to a syringe with an Eppendorf pipette tip. The syringe was filled with the 0.5 ml dosing solution by drawing the solution through the catheter tube. The catheter tube was wiped dry. K-Y jelly was applied to the tip, avoiding contact with the eye of the tube, and the tube was inserted into the colon through the anus until the tube was no longer visible. The solution was injected by pressing the syringe plunger, and the tube was removed.
Blood samples were collected serially from the tail artery, typically at time=0, 15, 30, 45, 60 and 90 minutes for oral and 0, 10, 20, 30, 60 and 90 for IC dosing. Serum rHGH concentrations were quantified by an rHGH immunoassay test kit (Kit # K1F4015 from Genzyme Corporation Inc., Cambridge, Mass.). Previous studies indicated baseline values of about zero.
The experiments were performed at 1/10 the delivery agent concentration versus that of the conjugate. Thus, at a dose of 200 mg/kg conjugate, the actual amount of delivery agent dosed was 20 mg/kg.

In the case of O=C(O)CCCCCCCNC(=O)c1ccccc1O [delivery agent I], the “Serum rhGH concentration, Min15” value (15 min, listed as (a)) is reported as 45.34 and 0 and 64.2 and 43.14 and 84.73 and 79.98 and 48.72, the “Serum rhGH concentration, Min30” value (30 min, listed as (a)) is reported as 46.52 and 58.44 and 18.99 and 23.44 and 13.19 and 22.69 and 1.82 and the “Serum rhGH concentration, Min45” value (45 min, listed as (a)) is reported as 35.53 and 0 (4×) and 4.29 and 18.35. For the same compound, the “Serum rhGH concentration, Min60” value (60 min, listed as (a)) was 34.885 and 3.922 and 10.13 and 15.93 and 10.565 and 5.49 and 7.905, the “Serum rhGH concentration, Min90” value (90 min, listed as (a)) was 2.715 and 0 (5×) and 1.47 and the “Serum rhGH concentration, Base line” value (baseline (time 0)) was 0.
